# Assay results reported in US7977352B2, “Triazolopyridine compounds useful for the treatment of degenerative and inflammatory diseases” (Galapagos NV, priority 2006, dated 2011).
# Experiments:
# [1] = test system: MMP1 expression by activated synovial fibroblasts (RASFs); test: MMP assay: MMP1 expression by RASFs triggered with TNF-α (MMP1 ELISA); assay type: cell-based; details: TNF-α trigger 10 ng/mL, semi-quantitative score, read-out: REDUCTION MMP1/TNFa
# How it was run: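 Primary RA synovial fibroblasts (passage 10–12, 3000 cells/well) were preincubated 90 min with compound in M199/1% FBS (0.2% DMSO), then triggered with TNF-α at 10 ng/mL final or 12.5% complex trigger for 48 h. MMP1 in supernatant was measured by sandwich chemiluminescent ELISA; untriggered and vehicle-triggered wells served as min/max controls.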
# [2] = test system: MMP1 expression by activated synovial fibroblasts (RASFs); test: MMP assay: MMP1 expression by RASFs triggered with 'complex trigger' (supernatant of TNF-α-treated THP-1 cells); assay type: cell-based; details: 'complex trigger' 12.5%, MMP1 ELISA, semi-quantitative score, read-out: Reduction MMP1/THP1
# Description: A 384-well format ELISA for measurement of MMP1 is developed. Various primary antibodies are tested, as well as various ELISA protocols. The following protocol is developed and validated to measure MMP1 levels in SF supernatant in 384 well plates: white Lumitrac 600 384 well plates (Greiner) are coated with 2 μg/mL anti-MMP1 antibody MAB1346 (Chemicon). The antibody is diluted in buffer 40 (1.21 g Tris base (Sigma), 0.58 g NaCl (Calbiochem) and 5 mL 10% NaN3 (Sigma) in 1 L milliQ water and adjusted to pH 8.5). After overnight incubation at 4° C., plates are washed with PBS (80 g NaCl, 2 g KCl (Sigma), 11.5 g Na2HPO4.7H2O and 2 g KH2PO4 in 10 L milliQ; pH 7.4) and blocked with 100 μL/well Casein buffer (2% Casein (VWR International) in PBS). Next day, casein buffer is removed from ELISA plates and replaced by 50 μL/well EC buffer (4 g casein, 2.13 g Na2HPO4 (Sigma), 2 g bovine albumin (Sigma), 0.69 g NaH2PO4.H2O (Sigma), 0.5 g CHAPS (Roche), 23.3 g NaCl, 4 mL 0.5 M EDTA pH 8 (Invitrogen), 5 mL 10% NaN3 in 1 L milliQ and adjusted to pH 7.0). 0.25 mM DTT (Sigma) is added to the thawed sample plates. After removal of the EC buffer, 20 μL of sample is transferred to the ELISA plates. After overnight incubation at 4° C. plates are washed twice with PBS and once with PBST (PBS with 0.05% Tween-20 (Sigma)) and incubated with 35 μL/well biotinylated anti-MMP1 antibody solution (R&D). This secondary antibody is diluted in buffer C (0.82 g NaH2PO4.H2O, 4.82 g Na2HPO4, 46.6 g NaCl, 20 g bovine albumin and 4 mL 0.5M EDTA pH 8 in 2 L milliQ and adjusted to pH 7.0) at a concentration of 5 μg/mL. After 2 h of incubation at RT, plates are washed as described above and incubated with 50 μL/well streptavidin-HRP conjugate (Biosource). Streptavidin-HRP conjugate is diluted in buffer C at a concentration of 0.25 μg/mL. After 45 min, plates are washed as described above and incubated for 5 min with 50 μL/well BM Chem ELISA Substrate (Roche). Readout is performed on the Luminoscan Ascent Luminometer (Labsystems) with an integration time of 200 msec or with an Envision reader (Perkin Elmer).
# The increase of MMP1 expression by SFs upon treatment with cytokines relevant in the field of RA (TNF-α, IL1β and OSM) or a combination thereof is shown in FIG. 2 as white bars. For this experiment, SFs are seeded in 96 well plates, 3,000 cells/well. 24 h later, the medium is changed to M199 medium supplemented with 1% FBS. One day after the medium change, cytokines or combinations thereof are added to the cultures, each cytokine being added to a final concentration of 25 ng/mL. 72 h after cytokine addition, the supernatant is collected and processed in the MMP1 ELISA as described in the protocol given above. In parallel with this experiment, SFs are triggered, using the same protocol, with the supernatant of THP1 cells (2-fold diluted in M199+1% FBS) treated with the same cytokines or combinations of cytokines for 48 h in M199 medium+1% FBS. The induction of the MMP1 expression by SFs triggered with the supernatants of TNF-α-treated THP1 cells is stronger (>4.5 fold induction) as compared to the SFs triggered with recombinant TNF-α alone (3-fold induction) and almost equals the 5-fold induction obtained by a mixture of 3 purified cytokines (TNF-α, IL1βb, OSM). […] As the role of TNF-α in the RA pathogenesis is validated (TNF-α-blockers as Infliximab and Ethanercept show some efficacy in the treatment of RA patients) and the THP-1 cells are representative for monocytes/macrophages present in the joint of RA patients, the TNF-α-based trigger mixture prepared by contacting THP-1 cells with TNF-α will contain factors present in the joints of RA patients and subsequently is relevant to RA. This TNF-α-based complex trigger, further referred to as the ‘complex trigger’, will further be used as basis for the ‘MMP assay’. For preparing a stock of this ‘complex trigger’, THP-1 cells are used between passage 8 and 16. […]
compound,measurement,setting,value
"NC(=O)c1ccc(-c2ccc(Nc3ccc(N4CCOCC4)cc3)c3ncnn23)cc1 [Example 1, 4-[8-(4-Morpholin-4-yl-phenylamino)-[1,2,4]triazolo[1,5-a]pyridin-5-yl]-benzamide]",IC50,"[1]; Fibroblast, 48 h",0.501 to 1 µM
same,IC50,"[2]; Homo sapiens, THP-1, 48 h",> 10 µM
"CN1CCN(c2ccc(Nc3ccc(-c4cn[nH]c4)n4ncnc34)cc2)CC1 [Example 2, [4-(4-Methyl-piperazin-1-yl)-phenyl]-[5-(1H-pyrazol-4-yl)-[1,2,4]triazolo[1,5-a]pyridin-8-yl]-amine]",IC50,"[1]; Fibroblast, 48 h",0.501 to 1 µM
same,IC50,"[2]; Homo sapiens, THP-1, 48 h",5 to 10 µM
"O=C(NCc1cccnc1)c1ccc(Nc2ccc(-c3cn[nH]c3)n3ncnc23)cc1 [Example 3, 4-[5-(1H-Pyrazol-4-yl)-[1,2,4]triazolo[1,5-a]pyridin-8-ylamino]-N-pyridin-3-ylmethyl-benzamide]",IC50,[1]; 48 hrs,0.501 to 1 µM
same,IC50,[2]; 48 hrs,1 to 5 µM
"CN1CCN(c2ccc(Nc3ccc(-c4cc[nH]c(=O)c4)n4ncnc34)cc2)CC1 [Example 4, 4-{8-[4-(4-Methyl-piperazin-1-yl)-phenylamino]-[1,2,4]triazolo[1,5-a]pyridin-5-yl}-1H-pyridin-2-one]",IC50,[1]; 48 hrs,0.501 to 1 µM
same,IC50,[2]; 48 hrs,1 to 5 µM
"O=C(NCc1cccnc1)c1ccc(Nc2ccc(-c3cc[nH]c(=O)c3)n3ncnc23)cc1 [Example 5, 4-[5-(2-oxo-1,2-dihydro-pyridin-4-yl)-[1,2,4]triazolo[1,5-a]pyridin-8-ylamino]-N-pyridin-3-ylmethyl-benzamide]",IC50,[1]; 48 hrs,0.501 to 1 µM
same,IC50,[2]; 48 hrs,> 10 µM
"c1nc2c(Nc3ccc(N4CCOCC4)cc3)ccc(-c3cn[nH]c3)n2n1 [Example 7, (4-Morpholin-4-yl-phenyl)-[5-(1H-pyrazol-4-yl)-[1,2,4]triazolo[1,5-a]pyridin-8-yl]-amine]",IC50,"[1]; Fibroblast, 48 h",0.501 to 1 µM
same,IC50,"[2]; Homo sapiens, THP-1, 48 h",5 to 10 µM
"Cc1[nH]ncc1-c1ccc(Nc2ccc(N3CCOCC3)cc2)c2ncnn12 [Example 8, [5-(5-Methyl-1H-pyrazol-4-yl)-[1,2,4]triazolo[1,5-a]pyridin-8-yl]-(4-morpholin-4-yl-phenyl)-amine]",IC50,[1]; 48 hrs,1 to 5 µM
same,IC50,[2]; 48 hrs,5 to 10 µM
"CN1CCN(c2ccc(Nc3ccc(-c4cn[nH]c4)n4ncnc34)cc2)CC1 [Example 36, N-[4-(4-methylpiperazin-1-yl)phenyl]-5-(1H-pyrazol-4-yl)[1,2,4]triazolo[1,5-a]pyridin-8-amine]",IC50,[1]; 48 hrs,1 to 5 µM
same,IC50,[2]; 48 hrs,> 10 µM
"O=C(NCc1cccnc1)c1ccc(Nc2ccc(-c3cn[nH]c3)n3ncnc23)cc1 [Example 37, 4-{[5-(1H-pyrazol-4-yl)[1,2,4]triazolo[1,5-a]pyridin-8-yl]amino}-N-(pyridin-3-ylmethyl)benzamide]",IC50,"[1]; Fibroblast, 48 h",< 0.5 µM
same,IC50,"[2]; Homo sapiens, THP-1, 48 h",1 to 5 µM
"Cc1[nH]ncc1-c1ccc(Nc2ccc(N3CCOCC3)cc2)c2ncnn12 [Example 39, 5-(5-methyl-1H-pyrazol-4-yl)-N-(4-morpholin-4-ylphenyl)[1,2,4]triazolo[1,5-a]pyridin-8-amine]",IC50,[1]; 48 hrs,5 to 10 µM
same,IC50,"[2]; Homo sapiens, THP-1, 48 h",> 10 µM
"CN1CCN(c2ccc(Nc3ccc(-c4cc[nH]c(=O)c4)n4ncnc34)cc2)CC1 [Example 40, 4-(8-{[4-(4-methylpiperazin-1-yl)phenyl]amino}[1,2,4]triazolo[1,5-a]pyridin-5-yl)pyridin-2(1H)-one]",IC50,"[1]; Fibroblast, 48 h",1 to 5 µM
same,IC50,"[2]; Homo sapiens, THP-1, 48 h",1 to 5 µM
"O=C(NCc1cccnc1)c1ccc(Nc2ccc(-c3cc[nH]c(=O)c3)n3ncnc23)cc1 [Example 41, 4-{[5-(2-oxo-1,2-dihydropyridin-4-yl)[1,2,4]triazolo[1,5-a]pyridin-8-yl]amino}-N-(pyridin-3-ylmethyl)benzamide]",IC50,"[1]; Fibroblast, 48 h",1 to 5 µM
same,IC50,"[2]; Homo sapiens, THP-1, 48 h",> 10 µM
"CN1CCN(c2ccc(Nc3ccc(-c4ccc(C(N)=O)c(F)c4)n4ncnc34)cc2)CC1 [Example 42, 2-fluoro-4-(8-{[4-(4-methylpiperazin-1-yl)phenyl]amino}[1,2,4]triazolo[1,5-a]pyridin-5-yl)benzamide]",IC50,"[1]; Fibroblast, 48 h",0.501 to 1 µM
same,IC50,"[2]; Homo sapiens, THP-1, 48 h",> 10 µM
